Laboratory results as given in patent US20140107109A1, “AMINO-DIHYDROTHIAZINE AND AMINO-DIOXIDO DIHYDROTHIAZINE COMPOUNDS AS BETA-SECRETASE ANTAGONISTS AND METHODS OF USE” (Amgen Inc., priority 2012, published 2014).

How the values were obtained:
[1] = system: Aβ40 in conditioned medium of cells stably expressing Amyloid Precursor Protein (APP); assay: In vitro BACE cell-based assay (HEK cell assay), Aβ40 sandwich ELISA; details: Homo sapiens, HEK293
Summary of the method: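 Aβ40 in conditioned medium was quantified by time-resolved fluorescence sandwich ELISA (pAb40 capture 3 h at 4 °C, biotin-6E10 detection 2 h at 4 °C) after 24 h compound exposure of APP-expressing cells. Doses spanned 10 points from 100 μM or 10 μM top, 0.1% DMSO; IC50 was derived from percent of control.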

[2] = molecular target: Beta Secretase enzyme (BACE1) (Homo sapiens, UniProt P56817); assay: In vitro enzymatic BACE FRET assay; assay type: biochemical; details: average IC50, enzyme assay; read-out: BACE1 FRET assay IC50
Chain of Beta Secretase enzyme (BACE1) (P56817 46-501): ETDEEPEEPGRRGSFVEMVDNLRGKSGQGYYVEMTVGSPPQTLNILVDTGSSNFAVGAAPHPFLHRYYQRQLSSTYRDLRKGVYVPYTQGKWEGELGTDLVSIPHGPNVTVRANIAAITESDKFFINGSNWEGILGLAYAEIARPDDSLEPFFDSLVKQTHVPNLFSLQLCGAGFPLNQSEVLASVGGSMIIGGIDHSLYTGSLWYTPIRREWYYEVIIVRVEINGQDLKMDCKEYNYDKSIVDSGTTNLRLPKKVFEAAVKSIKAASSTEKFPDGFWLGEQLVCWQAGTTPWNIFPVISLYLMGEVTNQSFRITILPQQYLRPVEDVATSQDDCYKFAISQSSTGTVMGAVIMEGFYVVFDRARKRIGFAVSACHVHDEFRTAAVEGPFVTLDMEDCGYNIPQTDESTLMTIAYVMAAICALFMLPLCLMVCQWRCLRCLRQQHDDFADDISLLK
Summary of the method: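 Readout: dequenched fluorescence (ex 488 nm/[…]) after neutralizing with Tris buffer. Reactions, begun by adding 50 nM quenched peptide substrate spanning the BACE cleavage site, were incubated one hour at pH 4.2 in 0.05 M acetate with 100 uM genapol and 10% final DMSO.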

Cathepsin D (Cat D) = molecular target: T1, Cathepsin D (Cat D) (Homo sapiens, UniProt P07339); assay: In vitro enzymatic Cathepsin D (Cat D) FRET assay; assay type: biochemical; details: read-out: CatD IC50
T1 construct: Recombinant Cat D was expressed in CHO cells; made in house; host or cells: CHO cells
T1 sequence (P07339 65-412, species assumed): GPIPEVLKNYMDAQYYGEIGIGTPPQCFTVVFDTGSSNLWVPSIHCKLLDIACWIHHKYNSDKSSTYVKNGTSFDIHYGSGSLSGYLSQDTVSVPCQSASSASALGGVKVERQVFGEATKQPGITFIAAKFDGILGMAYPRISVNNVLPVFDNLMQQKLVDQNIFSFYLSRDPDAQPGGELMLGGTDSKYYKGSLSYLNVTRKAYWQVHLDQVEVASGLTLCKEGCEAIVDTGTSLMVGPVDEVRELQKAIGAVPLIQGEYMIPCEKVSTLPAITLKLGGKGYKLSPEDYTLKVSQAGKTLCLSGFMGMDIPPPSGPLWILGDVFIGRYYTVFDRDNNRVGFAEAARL
Summary of the method: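 FRET read-out: a fluorophore/quencher-labelled peptide substrate is cleaved by 9 nM Cat D (recombinant, CHO-expressed) following a one-hour preincubation with inhibitor dilutions in DMSO. Tris buffer added to neutralize pH ends the reaction before fluorescence measurement.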

Row | SMILES | IC50 ([1]; average IC50, cell assay) [µM] | IC50 [2] [µM] | IC50 (Cathepsin D (Cat D)) [µM] | IC50 ([1]; average IC50, HEK cell assay) [µM]
1 | Cc1nc(Oc2ccc(F)c([C@]3(C)CS(=O)(=O)C(C)(C)C(N)=N3)c2)ccc1C#N [Example 272, 6-(3-((3R)-5-amino-3,6,6-trimethyl-1,1-dioxido-3,6-dihydro-2H-1,4-thiazin-3-yl)-4-fluorophenoxy)-2-methyl-3-pyridinecarbonitrile] | 2.02 | 2.69 | 217 | 
2 | CC1(C)C(N)=N[C@](C)(c2cc(Oc3ncccc3N)ccc2F)CS1(=O)=O [Example 273, (5R)-5-(5-((3-amino-2-pyridinyl)oxy)-2-fluorophenyl)-2,2,5-trimethyl-5,6-dihydro-2H-1,4-thiazin-3-amine 1,1-dioxide] | 1.01 | 1.5 | > 400 | 
3 | CC1(C)C(N)=N[C@](C)(c2cc(Oc3ncccc3F)ccc2F)CS1(=O)=O [Example 274, (5R)-5-(2-fluoro-5-((3-fluoro-2-pyridinyl)oxy)phenyl)-2,2,5-trimethyl-5,6-dihydro-2H-1,4-thiazin-3-amine 1,1-dioxide] | 0.0348 | 0.0374 | 153 | 
4 | CC1(C)C(N)=N[C@](C)(c2cc(Oc3ccc(F)cn3)ccc2F)CS1(=O)=O [Example 275, (5R)-5-(2-fluoro-5-((5-fluoro-2-pyridinyl)oxy)phenyl)-2,2,5-trimethyl-5,6-dihydro-2H-1,4-thiazin-3-amine 1,1-dioxide] | 0.424 | 0.84 | 364 | 
5 | Cc1cc(Oc2ccc(F)c([C@]3(C)CS(=O)(=O)C(C)(C)C(N)=N3)c2)ncc1Cl [Example 276, (5R)-5-(5-((5-chloro-4-methyl-2-pyridinyl)oxy)-2-fluorophenyl)-2,2,5-trimethyl-5,6-dihydro-2H-1,4-thiazin-3-amine 1,1-dioxide] | 2.63 | 2.71 | 421 | 
6 | CC1(C)C(N)=N[C@](C)(c2cc(Oc3ncc(C(F)(F)F)cc3F)ccc2F)CS1(=O)=O [Example 277, (5R)-5-(2-fluoro-5-((3-fluoro-5-(trifluoromethyl)-2-pyridinyl)oxy)phenyl)-2,2,5-trimethyl-5,6-dihydro-2H-1,4-thiazin-3-amine 1,1-dioxide] | 1.15 | 1.21 | 331 | 
7 | CC1(C)C(N)=N[C@](C)(c2cc(Oc3ncccc3C(F)(F)F)ccc2F)CS1(=O)=O [Example 278, (5R)-5-(2-fluoro-5-((3-(trifluoromethyl)-2-pyridinyl)oxy)phenyl)-2,2,5-trimethyl-5,6-dihydro-2H-1,4-thiazin-3-amine 1,1-dioxide] | 0.359 | 0.341 | 147 | 
8 | CC1(C)C(N)=N[C@](C)(c2cc(Oc3ccc(C(F)(F)F)cn3)ccc2F)CS1(=O)=O [Example 279, (5R)-5-(2-fluoro-5-((5-(trifluoromethyl)-2-pyridinyl)oxy)phenyl)-2,2,5-trimethyl-5,6-dihydro-2H-1,4-thiazin-3-amine 1,1-dioxide] | 2.09 | 5.6 | 188 | 
9 | CC1(C)C(N)=N[C@](C)(c2cc(Oc3cc(C#N)ccn3)ccc2F)CS1(=O)=O [Example 280, 2-(3-((3R)-5-amino-3,6,6-trimethyl-1,1-dioxido-3,6-dihydro-2H-1,4-thiazin-3-yl)-4-fluorophenoxy)-4-pyridinecarbonitrile] | 0.0521 | 0.039 | 395 | 
10 | CC1(C)C(N)=N[C@](C)(c2cc(Oc3cc(-c4ccc(Cl)cn4)ccn3)ccc2F)CS1(=O)=O [Example 281, (5R)-5-(5-((5-chloro-2,4′-bipyridin-2′-yl)oxy)-2-fluorophenyl)-2,2,5-trimethyl-5,6-dihydro-2H-1,4-thiazin-3-amine 1,1-dioxide] | 1.12 | 0.807 | 61.2 | 
11 | CC1(C)C(N)=N[C@](C)(c2cc(Oc3ccc(C#N)cn3)ccc2F)CS1(=O)=O [Example 282, 6-(3-((3R)-5-amino-3,6,6-trimethyl-1,1-dioxido-3,6-dihydro-2H-1,4-thiazin-3-yl)-4-fluorophenoxy)-3-pyridinecarbonitrile] | 1.15 | 1.56 | 227 | 
12 | CC1(C)C(N)=N[C@](C)(c2cc(Oc3cccc(C#N)n3)ccc2F)CS1(=O)=O [Example 283, 6-(3-((3R)-5-amino-3,6,6-trimethyl-1,1-dioxido-3,6-dihydro-2H-1,4-thiazin-3-yl)-4-fluorophenoxy)-2-pyridinecarbonitrile] | 0.0828 | 0.0919 | 12.9 | 
13 | CC1(C)C(N)=N[C@](C)(c2cc(Oc3ccc(F)c(C(F)(F)F)n3)ccc2F)CS1(=O)=O [Example 284, (5R)-5-(2-fluoro-5-((5-fluoro-6-(trifluoromethyl)-2-pyridinyl)oxy)phenyl)-2,2,5-trimethyl-5,6-dihydro-2H-1,4-thiazin-3-amine 1,1-dioxide] | 1.64 | 0.769 | 79.1 | 
14 | CC1(C)C(N)=N[C@](C)(c2cc(Oc3cc(Br)ccn3)ccc2F)CS1(=O)=O [Example 285, (5R)-5-(5-((4-bromo-2-pyridinyl)oxy)-2-fluorophenyl)-2,2,5-trimethyl-5,6-dihydro-2H-1,4-thiazin-3-amine 1,1-dioxide] | 0.0918 | 0.0375 | 374 | 
15 | CC#Cc1ccnc(Oc2ccc(F)c([C@]3(C)CS(=O)(=O)C(C)(C)C(N)=N3)c2)c1 [Example 286, (5R)-5-(2-fluoro-5-((4-(1-propyn-1-yl)-2-pyridinyl)oxy)phenyl)-2,2,5-trimethyl-5,6-dihydro-2H-1,4-thiazin-3-amine 1,1-dioxide] | 0.787 | 0.228 | 119 | 
16 | CC1(C)C(N)=N[C@](C)(c2cc(Oc3cc(-c4ccccc4)ccn3)ccc2F)CS1(=O)=O [Example 289, (5R)-5-(2-fluoro-5-((4-phenyl-2-pyridinyl)oxy)phenyl)-2,2,5-trimethyl-5,6-dihydro-2H-1,4-thiazin-3-amine 1,1-dioxide] | 0.568 | 0.0509 | 92.7 | 
17 | CC1(C)C(N)=N[C@](C)(c2cc(Oc3cc(-c4ccncc4)ccn3)ccc2F)CS1(=O)=O [Example 290, (5R)-5-(5-(4,4′-bipyridin-2-yloxy)-2-fluorophenyl)-2,2,5-trimethyl-5,6-dihydro-2H-1,4-thiazin-3-amine 1,1-dioxide] | 0.318 | 0.328 | 826 | 
18 | CC1(C)C(N)=N[C@](C)(c2cc(Oc3nccc4ccsc34)ccc2F)CS1(=O)=O [Example 291, (5R)-5-(2-fluoro-5-(thieno[2,3-c]pyridin-7-yloxy)phenyl)-2,2,5-trimethyl-5,6-dihydro-2H-1,4-thiazin-3-amine 1,1-dioxide] | 0.914 | 0.517 | 242 | 
19 | CC1(C)C(N)=N[C@](C)(c2cc(Oc3ncc(C(N)=O)c4sccc34)ccc2F)CS1(=O)=O [Example 292, 4-(3-((3R)-5-amino-3,6,6-trimethyl-1,1-dioxido-3,6-dihydro-2H-1,4-thiazin-3-yl)-4-fluorophenoxy)thieno[3,2-c]pyridine-7-carboxamide] |  | 2.01 | 219 | 2.23
20 | CC1(C)C(N)=N[C@](C)(c2cc(Oc3nccc(-c4ccccc4)c3C#N)ccc2F)CS1(=O)=O [Example 293, 2-(3-((3R)-5-amino-3,6,6-trimethyl-1,1-dioxido-3,6-dihydro-2H-1,4-thiazin-3-yl)-4-fluorophenoxy)-4-phenyl-3-pyridinecarbonitrile] |  | 0.836 | 50.9 | 0.68
21 | CC1(C)C(N)=N[C@](C)(c2cc(Oc3nccc4ccccc34)ccc2F)CS1(=O)=O [Example 294, (5R)-5-(2-fluoro-5-(1-isoquinolinyloxy)phenyl)-2,2,5-trimethyl-5,6-dihydro-2H-1,4-thiazin-3-amine 1,1-dioxide] |  | 1.05 | 202 | 1.14
22 | Cc1cc(C)c(C#N)c(Oc2ccc(F)c([C@]3(C)CS(=O)(=O)C(C)(C)C(N)=N3)c2)n1 [Example 295, 2-(3-((3R)-5-amino-3,6,6-trimethyl-1,1-dioxido-3,6-dihydro-2H-1,4-thiazin-3-yl)-4-fluorophenoxy)-4,6-dimethyl-3-pyridinecarbonitrile] |  | 2.64 | 1690 | 2.48
23 | Cc1ccc(C#N)c(Oc2ccc(F)c([C@]3(C)CS(=O)(=O)C(C)(C)C(N)=N3)c2)n1 [Example 296, 2-(3-((3R)-5-amino-3,6,6-trimethyl-1,1-dioxido-3,6-dihydro-2H-1,4-thiazin-3-yl)-4-fluorophenoxy)-6-methyl-3-pyridinecarbonitrile] |  | 0.263 | 232 | 0.515
24 | COc1cccnc1Oc1ccc(F)c([C@]2(C)CS(=O)(=O)C(C)(C)C(N)=N2)c1 [Example 297, (5R)-5-(2-fluoro-5-((3-methoxy-2-pyridinyl)oxy)phenyl)-2,2,5-trimethyl-5,6-dihydro-2H-1,4-thiazin-3-amine 1,1-dioxide] |  | 0.202 | 975 | 0.219
